This note sets out measurements from patent US20210267900A1, “PROCESSING METHOD FOR DRUG SUBSTANCE PARTICLES OF NON-UNIFORM PARTICLE SIZE” (NIPPON ZOKI PHARMACEUTICAL CO., LTD., priority 2018, published 2021).

Several values for one entry are separate records, joined by “and”; a condition that tells them apart may be missing. Equal values may be shown once.

Data set [1] is described as follows: Particle size distribution by sieving method (ro-tap-type sieve shaker). The format is physicochemical. The following applies: drug substance before processing, % by weight.
Source text: (§1) In the present invention, the particle size distribution of each of the drug substance (A) and the powder (B) can be determined by a weight-based distribution evaluation by a sieving method (measurement device: a ro-tap-type sieve shaker or the like) and a volume-based distribution evaluation by a laser-diffraction method (also referred to as “a laser diffraction scattering method”) (measurement device: Mastersizer 2000 or Mastersizer 3000 [Malvern] or the like, dispersion compression air pressure: 2 to 4 bars).
Data set [2] is described as follows: Particle size distribution by laser-diffraction method (Mastersizer 2000). The format is physicochemical. The note with it: drug substance before processing.
Source text: as §1

For the molecule `CC(=O)Nc1ccc(O)cc1` [Acetaminophen, acetaminophen], in data set [1], the “particles each having a particle size of 60 μm or less” value was 32.9% and the “particles each having a particle size of 500 μm or more” value was 14%. Further, in data set [2], the “particles each having a particle size of 50 μm or less” value is 25.11 % by volume and 21.08 % by volume; the “particles each having a particle size of 500 μm or more” value is 3.57 % by volume and 5.82 % by volume.
Regarding `CC(C)Cc1ccc(C(C)C(=O)O)cc1` (stereo not shown) [Ibuprofen, ibuprofen], in data set [1], the “particles each having a particle size of 60 μm or less” value is 27.2% and the “particles each having a particle size of 500 μm or more” value is listed as 11%.
With `CC(C)C[C@H](CN)CC(=O)O` [Pregabalin, pregabalin], the “particles each having a particle size of 60 μm or less” value in data set [1] was 14.5%.
